Measurements: paper PMC12677699, “Utilizing Proteolytic‐Resistant Nano‐Short Peptide Based on Naphthyl Tail‐Anchored to Combat Bacterial Infections” (Advanced Science, 2025)
≈ marks a conversion by molar mass, not a printed value. Non-standard residues stand in square brackets, D forms with d. Residues, ends and D or L forms follow the SMILES beside them. ξ: configuration not given here. ξAhp(2) = CCCCCC(N)C(=O)O

How the values were obtained:
S. aureus ATCC 29213 [1] = assay: ROS generation, DCFH-DA; type: cell-based, Staphylococcus aureus; settings: 16 × 10^−6 M, S. aureus ATCC 29213, DCFH-DA, 1 h; n = 3
Protocol: ROS accumulation levels were assessed by the fluorescent probe DCFH‐DA.^[ [63] ^] Logarithmic growth stage E. coli ATCC 25922 and S. aureus ATCC 29213 bacterial solutions were diluted to OD600 = 0.4 in PBS (pH = 7.4, 10 × 10^−3 M), followed by incubation with DCFH‐DA final concentration of 10 × 10^−6 M) for 30 min at 37 °C. Subsequently, the bacterial suspensions were then mixed with different concentrations of nano‐short peptides dilutions in equal volumes in a 96‐well plate and continued to incubate for 1 h (37 °C). Finally, the fluorescence intensity was measured using a microplate reader (excitation λ = 488 nm, emission λ = 525 nm).

[2] = LPS binding, BODIPY-TR-cadaverine displacement; settings: BC displacement, polymyxin B 10 µg mL^−1 = 100%, n = 3
Protocol: The binding ability of nano‐short peptides to LPS and LTA was evaluated using a BODIPY‐TR‐cadaverine (BC) displacement assay.^[ [59] ^] Test solutions containing LPS or LTA (50 µg mL^−1) were pre‐incubated with BC dye (5 µg mL^−1) for 4 h in the dark. Peptide solutions at varying concentrations were then mixed with the LPS or LTA, polymyxin B (final concentration 10 µg mL^−1) was used as a positive control, and LPS or LTA mixed with dye solution was used as a negative control. The fluorescence intensity (excitation λ = 580 nm, emission λ = 620 nm) was measured. %ΔF (au) = [(F treated – F negative control)/(F positive control – F negative control)] × 100%.

E. coli ATCC 25922 [3] = assay: Live/dead staining, PI and SYTO 9; type: cell-based, Escherichia coli
Text: Finally, a fluorescence microscope (EVOS FL Auto, Massachusetts, USA) was used to observe the fluorescence images of the bacteria under different background colors and representative pictures were taken.

S. aureus 25923 = type: cell-based, Staphylococcus aureus
Protocol: (§1) The MIC values of the nano‐short peptides were determined according to standard protocols.^[ [63] ^] Bacterial strains were revived from cryopreservation and cultured in Mueller–Hinton broth (MHB) to logarithmic growth phase, then diluted to a final density of 0.5–1 × 10⁶ CFU mL^−1. Serial dilutions of the nano‐short peptides were prepared in 0.2% bovine serum albumin (BSA) using a 96‐well plate format. Equal volumes of peptide solutions and bacterial suspensions were combined and incubated at 37 °C for 20–22 h. Bacterial growth was assessed by measuring absorbance at 492 nm, with MHB alone (negative control) and untreated bacterial suspension (positive control) included for reference.

S. aureus 29213 = type: cell-based, Staphylococcus aureus
Protocol: as §1

S. aureus ATCC 29213 [4] = assay: Intracellular ATP determination; type: cell-based, Staphylococcus aureus; settings: 16 × 10^−6 M, S. aureus ATCC 29213, 1 h, 37 °C; n = 3
Protocol: (§2) The intracellular ATP levels of E. coli ATCC 25922 and S. aureus ATCC 29213 after nano‐short peptides treatment were detected using an Enhanced ATP Assay Kit.^[ [59] ^] Logarithmic growth stage E. coli ATCC 25922 and S. aureus ATCC 29213 bacterial solutions were diluted to OD600 = 0.4 in MHB liquid medium. Then, the bacterial dilutions were co‐incubated with different concentrations of nano‐short peptides at 37 °C for 1 h. After incubation, the bacterial dilutions were centrifuged (12 000 rpm, 5 min, 4 °C) to pellet the cells. The resulting bacterial pellets were processed according to the steps in the kit. Finally, the chemiluminescence was detected by a microplate reader.

E. coli ATCC 25922 [5] = assay: Serum tolerance assay (MIC after incubation with serum); type: cell-based, Escherichia coli; settings: 4 h of incubation with various serum concentrations
Protocol: The serum stability of nano‐short peptides was evaluated by incubating peptide solutions with fetal bovine serum (FBS), which was at concentrations of 25%, 50%, and 100% (diluted in 0.2% BSA solution). Following 4 h of incubation, the antimicrobial activity was determined by measuring the MIC against the test strains.

S. typhimurium 7731 = type: cell-based, Salmonella typhimurium
Protocol: as §1

S. typhimurium 14028 = type: cell-based, Salmonella typhimurium
Protocol: as §1

E. coli ATCC 25922 [6] = assay: Intracellular ATP determination; type: cell-based, Escherichia coli; settings: 16 × 10^−6 M, E. coli ATCC 25922, 1 h, 37 °C; n = 3
Protocol: as §2

E. coli ATCC 25922 [7] = assay: Cytoplasmic membrane permeability, ONPG hydrolysis; type: cell-based, Escherichia coli; settings: within 1800 s
Text: The ONPG hydrolysis assay was employed to determine the effects of nano‐short peptides on permeability of E. coli ATCC 25922 cytoplasmic membranes. The detailed experimental procedures followed the previously published methodology.^[ [30] ^]

S. aureus ATCC 29213 [8] = assay: Respiratory chain dehydrogenase activity, RT reduction; type: cell-based, Staphylococcus aureus; settings: 16 × 10^−6 M, S. aureus ATCC 29213, 1.5 h, 37 °C; n = 3
Protocol: The inhibitory effects of nano‐short peptides on RCD activity in bacteria were evaluated using an RT reduction assay.^[ [58] ^] Logarithmic growth stage E. coli ATCC 25922 and S. aureus ATCC 29213 bacterial solutions were diluted to OD600 = 0.4 in MHB liquid medium. A mixed solution was prepared by combining RT (1 mg mL^−1), glucose (100 × 10^−3 M), and Tris‐HCl buffer (50 × 10^−3 M, pH 8.6) in equal volumes (1:1:1). In 96‐well microplates, serial dilutions of nano‐short peptides were prepared using the mixed solution, followed by addition of an equal volume of bacterial suspension. Following incubation at 37 °C for 1.5 h, the absorbance at 492 nm was measured using a microplate reader, with untreated bacterial suspensions serving as controls.

Row | SMILES | increase of ROS content vs untreated bacteria (S. aureus ATCC 29213 [1]) [fold] | LPS binding, % of polymyxin B's binding efficiency ([2]; 8 × 10^−6 M) [%] | LPS binding, % of polymyxin B's binding efficiency ([2]; 16 × 10^−6 M) [%] | red (PI)/green (SYTO 9) fluorescence overlap rate (E. coli ATCC 25922 [3]; 16 × 10^−6 M N4, E. coli ATCC 25922, ImageJ) [%] | red (PI)/green (SYTO 9) fluorescence overlap rate (E. coli ATCC 25922 [3]; 256 × 10^−6 M N4, E. coli ATCC 25922, ImageJ) [%] | MIC, S. aureus 25923 (S. aureus 25923) [µM] | MIC, S. aureus 29213 (S. aureus 29213) [µM] | ATP levels decreased to (S. aureus ATCC 29213 [4]) [%] | antimicrobial capacity after serum incubation (E. coli ATCC 25922 [5]) | MIC, S. typhimurium 7731 (S. typhimurium 7731) [µM] | MIC, S. typhimurium 14028 (S. typhimurium 14028) [µM] | ATP levels decreased to (E. coli ATCC 25922 [6]) [%] | increase in absorbance at 420 nm (ONPG hydrolysis) (E. coli ATCC 25922 [7]; 8 μM) | increase in absorbance at 420 nm (ONPG hydrolysis) (E. coli ATCC 25922 [7]; 16 μM) [fold] | RCD activity reduced to (S. aureus ATCC 29213 [8]) [%]
1 | N=C(N)NCCC[C@H](NC(=O)[C@@H](CCCNC(=N)N)NC(=O)[C@H](Cc1cccc2ccccc12)NC(=O)[C@H](Cc1cccc2ccccc12)NC(=O)[C@H](Cc1cccc2ccccc12)NC(=O)[C@@H](N)Cc1cccc2ccccc12)C(=O)N[C@@H](CCCNC(=N)N)C(=O)N1CCC[C@H]1C(=O)O (stereo in doubt) [Peptide N4] | 1.83 | 60.67 | 99.47 | 79.11 | 99.29 | 4 (≈ 5.49 µg/mL) | 4 (≈ 5.49 µg/mL) | 10.8 | retained their original antimicrobial capacity | 8 (≈ 11 µg/mL) | 8 (≈ 11 µg/mL) | 66.07 | approximately 2 fold | ~5 | 18.84
2 | CCCCCC(N)C(=O)NC(CCCCC)C(=O)NC(CCCCC)C(=O)NC(CCCCC)C(=O)N[C@H](CCCNC(=N)N)C(=O)N[C@@H](CCCNC(=N)N)C(=O)N[C@@H](CCCNC(=N)N)C(=O)N1CCC[C@H]1C(=O)O (stereo partly shown) [Peptide B4] (H-[ξAhp(2)][ξAhp(2)][ξAhp(2)][ξAhp(2)][dR]RRP-OH; N-terminus assumed) | 1.38 | 40.51 | 54.24 | – | – | 32 (≈ 35 µg/mL) | 16 (≈ 17.5 µg/mL) | 71.18 | retained their original antimicrobial capacity | 32 (≈ 35 µg/mL) | 128 (≈ 140 µg/mL) | – | – | – | 34.12
